Read-outs that look alike come from different tables or passages of the source.

One series relates to H3N2 Influenza A Virus. The class given is cell-based.
The next series deals with TNFα. Description: Expression of TNFα in cells (general statement, no data shown). The class given is cell-based. The following applies: no values. An excerpt:
A person skilled in the art would be able to identify TNFα-downregulating compounds of the invention by contacting one or more cells with a compound of the invention and assaying for the presence of one TNFα and comparing the levels of TNFα in the one or more cells with that of controls. Such methods are known in the art and are described in the examples herein below.

The subject of series [1] is MDCK cells. The experiment in a line: Cytotoxicity determination: cell viability of uninfected cells, CellTiter-Glo luminescent cell viability assay. The settings on record: 48 h; for Viability %: MDCK cells.
The subject of the next series is CK-2. The settings on record: 30 µM; cited from earlier work.
For series [2], the system named is murine retinal ganglion cells. The following applies: cited from earlier work.
Series [3] concerns MDCK cells. The settings on record: dog, 48 h.
The test system of a further series is PKC and CK-I. The following applies: 100 µM; cited from earlier work.

With `CON(C1OC(CO)C(O)C(O)C1O)C1CCC2(C)C(CCC3(C)C2C(=O)C=C2C4CC(C)(C(=O)O)CCC4(C)CCC23C)C1(C)C` [Compound 1, (3S,18R,20S)-11-Oxo-3-[(beta-D-glucopyranosyl)methoxamino]-olean-12-en-29-oic acid], the “cytopathic effect associated with virus replication in cell culture” value with H3N2 Influenza A Virus (general statement, no values) is listed as “reduce the cytopathic effect”. The “expression of TNFα” value in the series on TNFα is on record as “inhibit the expression of TNFα”.

For `COC(=O)[C@H]1O[C@@H](SCCN[C@H]2CC[C@]3(C)[C@H]4C(=O)C=C5[C@@H]6C[C@@](C)(C(=O)O)CC[C@]6(C)CC[C@@]5(C)[C@]4(C)CC[C@H]3C2(C)C)[C@H](O)[C@@H](O)[C@@H]1O` [Compound 2, (3S,18R,20S)-3-[2-S-(Methyl-1-thio-beta-D-glucopyranosyluronate)-ethyl-amino]-11-oxo-olean-12-en-29-oic acid], the Viability % in the series with MDCK cells [1] (25 µM) is recorded as 114.6%; in the series with MDCK cells [1] (250 µM), 101.2%.

Take `CC1(C)[C@@H](NCCS[C@@H]2O[C@H](C(=O)O)[C@@H](O)[C@H](O)[C@H]2O)CC[C@]2(C)[C@H]3C(=O)C=C4[C@@H]5C[C@@](C)(C(=O)O)CC[C@]5(C)CC[C@@]4(C)[C@]3(C)CC[C@@H]12` [Compound 3, (3S,18R,20S)-3-[2-(β-D-glucopyranuronosylthio)-ethyl-amino]-11-oxo-olean-12-en-29-oic acid]: the Viability % in the series with MDCK cells [1] (25 µM) was 103.5%; in the series with MDCK cells [1] (250 µM), 105.5%.

Regarding `COC(=O)[C@H]1O[C@@H](SCCN(C(C)=O)[C@H]2CC[C@]3(C)[C@H]4C(=O)C=C5[C@@H]6C[C@@](C)(C(=O)O)CC[C@]6(C)CC[C@@]5(C)[C@]4(C)CC[C@H]3C2(C)C)[C@H](O)[C@@H](O)[C@@H]1O` [Compound 4, (3S,18R,20S)-3-{N-Acetyl-N-[2-S-(methyl-1-thio-beta-D-glucopyranosyluronate)-ethyl]-amino}-11-oxo-olean-12-en-29-oic acid], the Viability % in the series with MDCK cells [1] (25 µM) came out at 104.4%; in the series on MDCK cells [1] (250 µM), 99.4%.

`CC(=O)N(CCS[C@@H]1O[C@H](C(=O)O)[C@@H](O)[C@H](O)[C@H]1O)[C@H]1CC[C@]2(C)[C@H]3C(=O)C=C4[C@@H]5C[C@@](C)(C(=O)O)CC[C@]5(C)CC[C@@]4(C)[C@]3(C)CC[C@H]2C1(C)C` [Compound 5, (3S,18R,20S)-3-{N-Acetyl-N-[2-(beta-D-glucopyranuronosylthio)-ethyl]-amino}-11-oxo-olean-12-en-29-oic acid]: the Viability % came to 106.6% in the series on MDCK cells [1] (25 µM) and 93.5% with MDCK cells [1] (250 µM).

In the case of `COC(=O)CCC(=O)N(CCS[C@@H]1O[C@H](C(=O)OC)[C@@H](O)[C@H](O)[C@H]1O)[C@H]1CC[C@]2(C)[C@H]3C(=O)C=C4[C@@H]5C[C@@](C)(C(=O)O)CC[C@]5(C)CC[C@@]4(C)[C@]3(C)CC[C@H]2C1(C)C` [Compound 6, (3S,18R,20S)-3-{N-(4-Methoxy-1,4-dioxobutyl)-N-[2-S-(methyl-1-thio-beta-D-glucopyranosyluronate)-ethyl]-amino}-11-oxo-olean-12-en-29-oic acid], the Viability % in the series on MDCK cells [1] (25 µM) amounted to 107.3%; in the series with MDCK cells [1] (250 µM), 106.3%.

Regarding `CC1(C)[C@@H](O)CC[C@]2(C)[C@H]3C(=O)C=C4[C@@H]5C[C@@](C)(C(=O)O)CC[C@]5(C)CC[C@@]4(C)[C@]3(C)CC[C@@H]12` [Glycyrrhetinic acid], in the series with CK-2, the “phosphorylation of C3α by CK-2” value was “completely inhibited”. The postsynaptic light response in series [2] is 30 % of control. The Viability % stood at 0.2% in the series with MDCK cells [3] (25 µM) and 0.0% in the series with MDCK cells [3] (250 µM).

As to `CC1(C)[C@@H](O[C@H]2O[C@H](C(=O)O)[C@@H](O)[C@H](O)[C@H]2O[C@@H]2O[C@H](C(=O)O)[C@@H](O)[C@H](O)[C@H]2O)CC[C@]2(C)[C@H]3C(=O)C=C4[C@@H]5C[C@@](C)(C(=O)O)CC[C@]5(C)CC[C@@]4(C)[C@]3(C)CC[C@@H]12` [Glycyrrhizin, glycyrrhizin, reference compound], the “phosphorylation of HMGB1/2 by PKC and CK-I” value with PKC and CK-I was “completely inhibits”. In addition, the “reduction of the CPE (cytopathic effect)” value in the series with H3N2 Influenza A Virus came out at 57%. The figures for the Viability % in the series with MDCK cells [1] (25 µM), with MDCK cells [1] (250 µM) and in the series with MDCK cells [1] (1500 µM) were 100.9%, 105.3% and 101.7%, respectively. Also, the “cell viability of uninfected treated cells versus uninfected untreated cells” value in the series with MDCK cells [1] (1.5 mM, uninfected MDCK cells) is “not significantly different”.

(Values after EP2258713A1, “Antiviral Triterpene Derivatives” (priority 2009, dated 2010).)
